The IC50 is the concentration that gives 50% inhibition. A higher IC50 goes with lower potency. One may read the pIC50 as the IC50 on a negative log10 scale, so that one unit is a factor of ten. Low values mean a high IC50, high ones a low IC50.

One assay addresses T1, Chitin synthase 3 (Saccharomyces cerevisiae S288c, UniProt P29465).
T1 sequence (P29465 whole entry): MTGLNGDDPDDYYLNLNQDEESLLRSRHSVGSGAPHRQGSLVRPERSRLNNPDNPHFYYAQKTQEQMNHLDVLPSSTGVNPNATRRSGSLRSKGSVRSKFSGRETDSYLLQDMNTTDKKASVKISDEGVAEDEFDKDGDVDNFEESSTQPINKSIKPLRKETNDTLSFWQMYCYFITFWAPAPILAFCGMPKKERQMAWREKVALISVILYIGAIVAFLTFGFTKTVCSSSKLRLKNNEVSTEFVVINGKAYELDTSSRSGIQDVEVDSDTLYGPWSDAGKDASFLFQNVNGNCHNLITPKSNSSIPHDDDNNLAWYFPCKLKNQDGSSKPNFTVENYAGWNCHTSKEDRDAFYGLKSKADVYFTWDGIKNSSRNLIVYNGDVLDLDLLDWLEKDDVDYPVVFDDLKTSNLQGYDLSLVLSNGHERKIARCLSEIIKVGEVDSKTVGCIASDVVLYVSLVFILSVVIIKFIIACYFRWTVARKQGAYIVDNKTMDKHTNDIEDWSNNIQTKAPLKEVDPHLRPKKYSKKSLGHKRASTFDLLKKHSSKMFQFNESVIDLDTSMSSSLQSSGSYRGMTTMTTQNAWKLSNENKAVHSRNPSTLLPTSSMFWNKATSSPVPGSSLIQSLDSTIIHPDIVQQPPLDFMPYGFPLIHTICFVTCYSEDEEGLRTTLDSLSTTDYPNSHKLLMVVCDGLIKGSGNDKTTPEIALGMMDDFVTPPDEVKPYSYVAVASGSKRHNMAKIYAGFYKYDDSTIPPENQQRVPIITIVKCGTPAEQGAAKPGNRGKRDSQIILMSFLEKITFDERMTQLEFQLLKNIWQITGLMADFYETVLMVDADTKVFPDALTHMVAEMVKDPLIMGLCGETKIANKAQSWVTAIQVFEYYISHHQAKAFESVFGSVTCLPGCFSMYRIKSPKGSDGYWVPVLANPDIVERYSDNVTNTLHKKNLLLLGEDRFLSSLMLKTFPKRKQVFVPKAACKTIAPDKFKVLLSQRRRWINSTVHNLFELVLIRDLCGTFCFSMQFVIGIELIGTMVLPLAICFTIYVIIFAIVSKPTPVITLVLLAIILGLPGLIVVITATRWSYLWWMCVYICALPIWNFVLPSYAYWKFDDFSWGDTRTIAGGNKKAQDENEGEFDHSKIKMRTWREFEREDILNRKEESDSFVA
In words: Inhibition of Saccharomyces cerevisiae chitin synthase.
The molecule `O=C(/C=C/c1ccc2ccccc2c1)c1ccccc1` gave an IC50 of 94.2 µM.
As to `COc1ccc(/C=C/C(=O)c2ccccc2)c(OC)c1`, the IC50 was 372 µM.
The molecule `O=C(/C=C/c1ccco1)c1ccc(Cl)cc1Cl` gave a half-maximal inhibitory concentration (IC50) of 824 µM.
Same read-out and setting: to `COc1cccc(/C=C/C(=O)c2ccccc2)c1OC` belongs 298 µM.
In turn, `COc1ccc(/C=C/C(=O)c2ccccc2)cc1OC` gave an IC50 of 372 µM.

In a further assay the target is Chitin synthase (Candida albicans, UniProt P30572+P23316+P30573). The experiment in a line: Inhibition of Candida albicans chitin synthase. It is filed as protein assay.
`CC(C)[C@H](N)C(=O)OC1Cc2c(cccc2N(C)CC#CC#CC(C)(C)C)NC1=O` (some centres not stated) had a pIC50 of 4.422.
Molecule `CCCCN(C/C=C/C#CC(C)(C)C)c1cccc2c1CCC(=O)N2` came in with a negative logarithm of the IC50 (pIC50) of 5.985.
`CN(CC#CC#CC(C)(C)O)c1cccc2c1CCC(=O)N2` registered a pIC50 of 3.143.
For `CC(C)(C)C#C/C=C/CN(Cc1ccccc1)c1cccc2c1CCC(=O)N2`, the pIC50 was 3.839.
`CN(CC#CC#CC(C)(C)C)c1cccc2c1CC(O)C(=O)N2` (configuration not stated) showed a negative-log IC50 (pIC50) of 5.015.
`CCOP(=O)(OCC)OC1Cc2c(cccc2N(C)CC#CC#CC(C)(C)C)NC1=O` (configuration not stated) returned a negative-log IC50 (pIC50) of 5.769.
Regarding `CN(CC#CC#CC(C)(C)C)c1cccc2c1CC(N)C(=O)N2` (configuration not stated), the pIC50 was determined as 4.401.
For `CC(C)(C)C#C/C=C/CNc1cccc2c1CCC(=O)N2`, the pIC50 is listed as 3.6.
`CCC#CC#CCN(C)c1cccc2c1CCC(=O)N2`: the pIC50 was 4.529.
With `CC(C)N(C/C=C/C#CC(C)(C)C)c1cccc2c1CCC(=O)N2`, the negative-log IC50 (pIC50) is given as 5.421.
The molecule `CN(C/C=C/C#CC(C)(C)C)c1cccc2c1CCC(=O)N2` showed a negative-log IC50 (pIC50) of 5.029.
In turn, `CN(CCCC#CC(C)(C)C)c1cccc2c1CCC(=O)N2` came in with a negative logarithm of the IC50 (pIC50) of 4.523.
`CCCCCN(C/C=C/C#CC(C)(C)C)c1cccc2c1CCC(=O)N2` returned a pIC50 of 5.506.
Same read-out and setting: to `CN(CC#CC#CC(C)(C)C)c1cccc2c1CCC(=O)N2` belongs 6.323.
As for `CCCN(C/C=C/C#CC(C)(C)C)c1cccc2c1CCC(=O)N2`, the negative-log IC50 (pIC50) came out at 5.679.
`CCN(C/C=C/C#CC(C)(C)C)c1cccc2c1CCC(=O)N2` returned a pIC50 of 5.538.
With `CN(Cc1ccc(C#CC(C)(C)C)cc1)c1cccc2c1CCC(=O)N2`, the negative-log IC50 (pIC50) is 4.681.
